Experimental data from patent publication US20100240581A1, “SELECTIVE PROTEASOME INHIBITORS FOR TREATING DIABETES” (The Trustees of Columbia University in the City of New York, priority 2006, published 2010).
“Also recorded” adds a separate entry of the source.

Tests used:
male C57BL/Ks db/db mice [1] = assay: Body composition (Bruker NMR), food intake and liver in db/db mice; format: in vivo, mouse; settings: dietary curcumin (3%)
[2] = Serum insulin in db/db mice; format: in vivo, mouse; settings: for serum insulin: single i.p. dose, celastrol 3 mg/kg or epoxomicin 0.1 mg/kg, 24 hours post injection, male C57BL/Ks db/db mice
From the text: (§1) As FIGS. 19 and 20 A-C reveal, untreated ob/ob mice develop pancreatic β-cell hyperplasia and hyperinsulinemia, a phenomenon that ultimately allows them to recoup normoglycemia. The pancreatic islets in untreated C57BL/Ks db/db mice however, degenerate (FIG. 20 D-F).

male C57BL/6J ob/ob mice [3] = assay: Blood glucose in ob/ob mice on dietary curcumin; format: in vivo, mouse; settings: dietary curcumin (3%), p<0.05
male C57BL/6J ob/ob mice [4] = assay: Insulin tolerance test in ob/ob mice; format: in vivo, mouse; settings: dietary curcumin (3%)
Method: (§2) This translated into a daily consumption by the mice of roughly 1.0 to 1.5 g/kg/day.
(§3) This effect was noted to last for at least 48 hours post-injection. Mice receiving vehicle in the celastrol and epoxomicin experiments were food entrained to the treatment group to avoid any acute effects on glucose levels from differences in food intake.

[5] = tested on: macrophages in adipose tissue of ob/ob mice; assay: Adipose macrophage immunohistochemistry (F480 antibody) in ob/ob mice; format: in vivo, mouse; settings: dietary curcumin; male C57BL/6J ob/ob mice
male C57BL/6J DIO mice [6] = assay: Body composition, food intake and liver in DIO mice; format: in vivo, mouse
[7] = Serum adiponectin in ob/ob mice; format: in vivo, mouse; settings: curcumin-treated ob/ob mice (not shown)
From the text: (§4) Given that the adipose tissue of obese subjects is chronically inflamed and secretes diabetogenic adipokines, we investigated the possibility that proteasome inhibition improves diabetes by decreasing adipose inflammation in obese diabetic mice.

[8] = tested on: adiponectin (Acdc), F480 (Emr1); assay: Quantitative real-time PCR of white adipose tissue of ob/ob mice; format: in vivo, mouse; settings: dietary curcumin, 10 weeks; male ob/ob mice
From the text: as §4

[9] = tested on: TNF-α, Socs-3, Ccl2 (MCP-1 gene) and Ccr2 (MCP-1 receptor gene); assay: Quantitative real-time PCR of hepatic inflammatory genes in ob/ob mice; format: in vivo, mouse; settings: dietary curcumin, 10 weeks; male ob/ob mice
From the text: (§5) These included TNF-α, Socs-3, Ccl2 (MCP-1 gene) and Ccr2 (MCP-1 receptor gene).

male C57BL/6J ob/ob mice [10] = assay: Body composition (Bruker NMR), food intake and liver in ob/ob mice; format: in vivo, mouse
[11] = tested on: diabetic streptozotocin-treated rat; settings: oral curcumin therapy; preclinical studies, mostly streptozotocin-treated rat; cited from earlier work
male C57BL/6J DIO mice [12] = assay: Glucose tolerance test in DIO mice; format: in vivo, mouse; settings: dietary curcumin
Method: as §2, §3

NFkB p65 = assay: p65 activity assay (TransAM NFkB p65 Kit) in liver nuclear extracts of ob/ob mice; format: in vivo, mouse; settings: dietary curcumin, 10 weeks; liver nuclear extract of ob/ob mice
From the text: as §5

[13] = tested on: pancreatic islets of C57BL/Ks db/db mice; assay: Immunohistology of pancreatic islets in db/db mice; format: in vivo, mouse; settings: curcumin-treated C57BL/Ks db/db mice
From the text: as §1

[14] = tested on: DIO C57BL/6J, C57BL/6J ob/ob and C57BL/Ks db/db mice; assay: Random fed glucose and HbA1c in the three mouse models of diabetes; format: in vivo
male C57BL/Ks db/db mice [15] = assay: Blood glucose in db/db mice (dietary curcumin or single i.p. injection); format: in vivo, mouse; settings: for blood glucose after a single intraperitoneal injection: epoxomicin 0.1 mg/kg or celastrol 3 mg/kg i.p., male db/db mice, noted approximately 10 hours after injection; for duration of blood glucose lowering after injection: single i.p. injection
From the text: as §2
Male C57BU6J mice gradually develop obesity and moderate diabetes when placed on high-fat diets, a process quite analogous to that in humans. […] However, the loss of leptin effect on the C57BL/Ks background is not compensated for by β-cell hyperplasia and hyperinsulinemia. At a very young age these mice become severely hyperglycemic, hyperphagic, and polydipsic. As they mature, they start to lose weight, develop nephropathy, and ultimately die around age 40 weeks from diabetic complications.
as §3

[16] = daily doses about 0.5 to about 3.0 mg/kg/d (i.p.); cited from earlier work
[17] = tested on: Glucotoxic HIT-T15 β-cells; settings: cited from earlier work
[18] = tested on: human prostrate cancer growth in nude mice; settings: tumor-bearing nude mice; 1-3 mg/kg/d (i.p.); cited from earlier work
male C57BL/Ks db/db mice [19] = assay: Insulin tolerance test in db/db mice; format: in vivo, mouse; settings: celastrol i.p., 24 hours after a single injection
Method: as §3

[20] = tested on: adiponectin (Acdc), Ccl2 (MCP-1); assay: Gene expression in white adipose tissue of db/db mice after celastrol; format: in vivo, mouse; settings: celastrol i.p. once daily for 3 days; male db/db mice
rat β-cell line INS-1 = assay: INS-1 viable cell number (CellTiter-Blue Cell Viability Assay); format: cell-based; settings: INS-1 cells, 24 hours
From the text: To follow-up on the potential ability of proteasome inhibition to improve β-cell function, we performed experiments using the rat β-cell line Ins-1.

[21] = molecular target: T1, human prostate cancer cellular 26S proteasome (Homo sapiens, UniProt P28074); settings: reported (ref. 83); cited from earlier work
T1 construct: human prostate cancer cellular 26S proteasome

[22] = molecular target: chymotrypsin-like activity of a purified 20S proteasome (Homo sapiens, UniProt P28074); settings: reported (ref. 83); cited from earlier work
[23] = curcumin-fed ob/ob mice vs controls (data not shown)
[24] = dietary curcumin (3%), ob/ob mice

In the case of `COc1cc(/C=C/C(=O)CC(=O)/C=C/c2ccc(O)c(OC)c2)ccc1O` [curcumin], the body weight (male C57BL/Ks db/db mice [1]) is reported as “weighed more; also recorded: significantly increased”, the “lean muscle mass (NMR)” value (male C57BL/Ks db/db mice [1]) is reported as “significantly more lean mass; also recorded: significantly increased lean muscle mass” and the serum insulin levels ([2]; dietary curcumin, db/db mice) is reported as “exhibit hyperinsulinemia; also recorded: significantly increased serum insulin levels”. For the same molecule, the “effect on hyperglycemia (blood glucose)” value (male C57BL/6J ob/ob mice [3]) was “significant protective effect against hyperglycemia”, the “AUC of insulin tolerance test” value (male C57BL/6J ob/ob mice [4]) was “decreased area under the curve (AUC); also recorded: significantly lowers AUC of insulin tolerance test” and the “adipose macrophage infiltration (F480 staining)” value [5] was “dramatic reduction in the number of macrophages; also recorded: significant reduction of adipose macrophage infiltration”. For the same molecule, the body weight (male C57BL/6J DIO mice [6]; 3% curcumin in food, DIO mice) was “weighed slightly but significantly less”, the liver weight (male C57BL/6J DIO mice [6]; curcumin treatment, DIO mice) was “significantly lower; also recorded: significantly decreased” and the “degree of liver steatosis” value (male C57BL/6J DIO mice [6]; curcumin-fed DIO mice vs controls (data not shown)) was “significantly lower”. For the same molecule, the “body fat percentage / body fat” value (male C57BL/6J DIO mice [6]; one month of curcumin treatment, DIO mice) was “significantly less body fat; also recorded: significantly decreased body fat percentage”, the serum adiponectin levels [7] was “significantly higher” and the “F480 (Emr1) expression in white adipose tissue” value [8] was “significantly decreased macrophage-specific Emr1 (F480) expression; also recorded: decreases F480 (Emr1) expression”. For the same molecule, the “adiponectin (Acdc) expression in white adipose tissue” value [8] was “dramatically increased; also recorded: significantly increases expression of adiponectin (Acdc)”, the “hepatic expression of pro-inflammatory genes (TNF-α, Socs-3, Ccl2, Ccr2)” value [9] was “significantly downregulated; also recorded: significantly lowers hepatic expression of pro-inflammatory genes” and the “degree of liver steatosis” value (male C57BL/6J ob/ob mice [10]; [23]) was “significantly lower”. For the same molecule, the liver weight (male C57BL/6J ob/ob mice [10]; [23]) was “significantly lower”, the “adipose mass / body fat” value (male C57BL/6J ob/ob mice [10]; [24]) was “significantly less body fat; also recorded: significantly decreases” and the body weight (male C57BL/6J ob/ob mice [10]; [24]) was “weighed slightly but significantly less; also recorded: significantly decreases body weight”. For the same molecule, the “lean body mass (NMR)” value (male C57BL/6J ob/ob mice [10]; [24]) was “significantly more lean mass; also recorded: significantly increases lean body mass”, the “diabetes-related hyperglycemia or end-organ damage” value [11] was “prevents, delays, or ameliorates diabetes-related hyperglycemia or end-organ damage” and the “AUC of glucose tolerance test” value (male C57BL/6J DIO mice [12]) was “improved glucose tolerance; also recorded: significantly lowers AUC of glucose”. For the same molecule, the “hepatic NF-κB activity” value (NFkB p65) was “significantly less NFkB activity; also recorded: significantly decreases hepatic NF-κB activity”, the “proliferating β-cells (nuclear Ks67 immunoreactivity)” value [13] was “contain some proliferating β-cells” and the “pancreatic islet morphology (hyperplasia)” value ([13]; age 20 weeks) was “islets actually become hyperplastic; also recorded: hyperplasia of the pancreatic islets”. For the same molecule, the HbA1c levels ([14]; 3% dietary curcumin, all mouse models of diabetes tested) was “significant decreases; also recorded: decreases HbA1c percentage”, the random fed glucose ([14]; 3% dietary curcumin, all three diabetic mice categories, as early as 2-3 weeks) was “significant decreases” and the “HbA1c percentage in non-diabetic mice” value ([14]; dietary curcumin (3%), non-diabetic mice) was “not affected”. The “effect on hyperglycemia (blood glucose)” value (male C57BL/Ks db/db mice [15]; dietary curcumin (3%), male C57BL/Ks db/db mice, p<0.05) was “significant protection against hyperglycemia”.
For `CC[C@H](C)[C@H](NC(=O)[C@H]([C@@H](C)CC)N(C)C(C)=O)C(=O)N[C@H](C(=O)N[C@@H](CC(C)C)C(=O)[C@@]1(C)CO1)[C@@H](C)O` [epoxomicin], the serum insulin [2] is listed as “significant increases in serum insulin; also recorded: significantly increase serum insulin”, the antiinflammatory activity [16] is listed as “exhibits antiinflammatory activity” and the “blood glucose after a single intraperitoneal injection” value (male C57BL/Ks db/db mice [15]) is listed as “correction of hyperglycemia; also recorded: significantly lowers blood glucose”. The “duration of blood glucose lowering after injection” value (male C57BL/Ks db/db mice [15]; male C57BL/Ks db/db mice) was roughly 2 days.
For `CC(=O)N[C@@H](CSC(=O)[C@]1([C@@H](O)C(C)C)NC(=O)[C@H](C)[C@@H]1O)C(=O)O` [lactacystin], the MafA protein [17] is given as “caused an accumulation of MafA protein”.
In the case of celastrol, the serum insulin [2] is listed as “significant increases in serum insulin; also recorded: significantly increase serum insulin”, the tumor growth [18] is listed as “inhibition of tumor growth” and the “AUC of ITT” value (male C57BL/Ks db/db mice [19]) is listed as “improved insulin tolerance; also recorded: significantly lower AUC of ITT”. For the same molecule, the “Ccl2 (MCP-1) expression in white adipose tissue” value [20] was “significantly decreased adipose expression of Ccl-2; also recorded: decreasing expression of Ccl2 (MCP-1)”, the “adiponectin (Acdc) expression in white adipose tissue” value [20] was “significantly increased expression of adiponectin; also recorded: significantly increases expression of adiponectin (Acdc)” and the “cell viability at highest concentrations” value (rat β-cell line INS-1) was “proved cytotoxic; also recorded: negative effects on cell viability”. For the same molecule, the “concentration inhibiting human prostate cancer cellular 26S proteasome” value [21] was 1-5 μM/L, the IC50 [22] was 2.5 µM and the “blood glucose after a single intraperitoneal injection” value (male C57BL/Ks db/db mice [15]) was “correction of hyperglycemia; also recorded: significantly lowers blood glucose”. For the same molecule, the “duration of blood glucose lowering after injection” value (male C57BL/Ks db/db mice [15]; male C57BL/Ks db/db mice) was roughly 2 days.
